# Laboratory results reported in US20050096308A1, “Antibacterial agents” (priority 2003, published 2005).
# Assays:
# Assay in all cases: Antibacterial assay (Test A), standard microtitration, MIC
# Assay type in all cases: cell-based
# H. influenzae HI-3542 = conditions: Haemophilus influenzae, HI3542; Gram Negative Bacteria; strain HI-3542; read-out: Minimum Inhibitory Concentrations H. influenzae HI-3542
# Experimental: (§1) Test A—Antibacterial Assays
# (§2) The compounds of the present invention were tested against an assortment of Gram-negative and Gram-positive organisms using standard microtitration techniques (Cohen et. al., Antimicrob., 1985;28:766; Heifetz, et. al., Antimicrob., 1974;6:124).
# M. catarrhalis BC-3531 = conditions: Moraxella catarrhalis, BC3531; Gram Negative Bacteria; strain BC-3531; read-out: Minimum Inhibitory Concentrations M. catarrhalis BC-3531
# Experimental: as §1, §2
# E. coli MC4100 = conditions: Escherichia coli; Gram Negative Bacteria; strain MC4100; read-out: Minimum Inhibitory Concentrations E. coli MC4100
# Experimental: as §1, §2
# S pyogenes C203 = conditions: Gram Positive Bacteria; strain C203; read-out: Minimum Inhibitory Concentrations S pyogenes C203
# Experimental: as §1, §2
# S. aureus UC-76 = conditions: Staphylococcus aureus, UC76; Gram Positive Bacteria; strain UC-76; read-out: Minimum Inhibitory Concentrations S. aureus UC-76
# Experimental: as §1, §2
# E. faecalis MGH-2 = conditions: Enterococcus faecalis, MGH2; Gram Positive Bacteria; strain MGH-2; read-out: Minimum Inhibitory Concentrations E. faecalis MGH-2
# Experimental: as §1, §2
SMILES,MIC (H. influenzae HI-3542) [mg/L],MIC (M. catarrhalis BC-3531) [mg/L],MIC (E. coli MC4100) [mg/L],MIC (S pyogenes C203) [mg/L],MIC (S. aureus UC-76) [mg/L],MIC (E. faecalis MGH-2) [mg/L]
Cc1c(N2CC(CCO)C2)c(F)cc2c(=O)n(N)c(=O)n(C3CC3)c12 [drawing 119],4,4,32,,,
Nc1nc(-n2c(=O)n(N)c(=O)c3cc(F)c(N4CC(O)C4)c(Cl)c32)c(F)cc1F [drawing 117],1,4,64,,,
Nn1c(=O)c2cc(F)c(N3CC(O)(c4ccc(F)cc4)C3)c(Cl)c2n(C2CC2)c1=O [drawing 121],32,16,64,,,
Cc1c(N2CC(O)C2)c(F)cc2c(=O)n(N)c(=O)n(C3CC3)c12 [drawing 118],32,1,1,,,
CC(C)C1(O)CN(c2c(F)cc3c(=O)n(N)c(=O)n(C4CC4)c3c2Cl)C1 [drawing 128],,,,64,16,32
Nn1c(=O)c2cc(F)c(N3CC(O)(c4ccc(F)cc4)C3)c(Cl)c2n(C2CC2)c1=O [drawing 127],,,,8,4,16
CC(C)C1(O)CN(c2c(F)cc3c(=O)n(N)c(=O)n(C4CC4)c3c2Cl)C1 [drawing 122],32,32,64,,,
Nn1c(=O)c2cc(F)c(N3CC(O)(C4CC4)C3)c(Cl)c2n(C2CC2)c1=O [drawing 126],,,,0.5,0.03,0.5
Cc1c(N2CC(CCO)C2)c(F)cc2c(=O)n(N)c(=O)n(C3CC3)c12 [drawing 125],,,,16,4,16
Nc1nc(-n2c(=O)n(N)c(=O)c3cc(F)c(N4CC(O)C4)c(Cl)c32)c(F)cc1F [drawing 123],,,,16,4,16
Nn1c(=O)c2cc(F)c(N3CC(O)(C4CC4)C3)c(Cl)c2n(C2CC2)c1=O [drawing 120],0.03,0.03,0.002,,,
Cc1c(N2CC(O)C2)c(F)cc2c(=O)n(N)c(=O)n(C3CC3)c12 [drawing 124],,,,16,1,32
